Peptide text beside a SMILES is read from it. * marks the point of attachment. Cbz = O=C(OCc1ccccc1)*
Experiments:
Assay type in all cases: cell-based, mouse
[1] = test system: DC2.4 cells; assay: MHC class I cross-presentation by DC2.4 cells to OT-I CD8+ T cells (IL-2 ELISA); conditions: for effect on stimulation of OT-I CD8+ T cells by OVA (IL-2 production) / effect on stimulation of OT-I CD8+ T cells by SIINFEKL peptide (IL-2 production): FIG. 8b; for effect on stimulation of OT-I CD8+ T cells by OVA (IL-2 production): OVA 250 μg mL−1; for effect on stimulation of OT-I CD8+ T cells by SIINFEKL peptide (IL-2 production): SIINFEKL 10 ng mL−1
Source text: Whether knock-down of cellular components involved in ERAD decreases the cross-presentation of exogenous OVA antigen was examined using a system for evaluating the level of antigen presentation, which uses naive CD8^+ T cells from OT-I mice and DC2.4 cells. The DC2.4 cells used as a model of dendritic cells are of the H-2Kb mouse MHC class I haplotype. OT-I (H-2Kb) mice are transgenic mice expressing a T cell receptor (TCRα and β) that recognizes an antigenic peptide (SIINFEKL) (SEQ ID NO: 15) derived from OVA presented on the H-2Kb molecules. The CD8^+ cells of OT-I mice are activated when they recognize OVA peptides presented by BMDCs derived from H-2Kb mice or by DC2.4 cells. When OVA or bOVA is incubated with and affixed onto DC2.4 cells and the cells are further incubated with naive CD8^+ T cells of OT-I mice, the amount of IL-2 produced by OT-I CD8^+ T cells serves as an index of T-cell stimulation as a result of OVA antigen presented by DC2.4 cells.
Parental or knocked-down DC2.4 cells were pre-incubated in a culture medium supplemented with 50 μg mL^−1 polymyxin B for 30 minutes in the presence or absence of lactacystin or MG-132, and incubated with OVA (250 μg mL^−1) or SIINFEKL peptides (10 ng mL^−1) for six hours. The cells were washed, fixed with 1% paraformaldehyde, and aliquoted into microtiter plates (5×10^4 per well). 5×10^4 CD8^+ T cells purified from splenocytes of OT-1 mice using magnetic beads were added to each well and after a 24-hour incubation, the IL-2 secretion was measured by ELISA (BD Biosciences) in triplicate.
DC2.4 cells were incubated with OVA (0, 50, or 250 μg/mL) in RPMI1640/10c% FCS for six hours at 37° C., in the presence or absence of pig-derived HSP90 (10 μg/mL). After washing away the antigen and HSP, OT-I CD8^+ T cells were added, cells were cultured overnight at 37° C., and the amount of IL-2 comprised in the supernatant was measured by the ELISA method.
The timing of the addition of HSP90 (10 μg/mL) and OVA (250 μg/mL) to DC2.4 cells was varied, and the effect on class I antigen presentation was observed. (i) HSP90 was added first, DC2.4 cells were washed, and then OVA was added. (ii) HSP90 and OVA were added simultaneously to DC2.4 cells. (iii) OVA was added first, and after washing DC2.4 cells, HSP90 was added. The results obtained under these three conditions were compared. As a control for all these conditions, an experiment in which only OVA, but not HSP90, was added was also carried out.
Under condition (i), HSP90 was added to DC2.4 cells, the cells were cultured for 30 minutes and then washed to remove HSP90. Next, OVA was added and the cells were cultured for three hours. Thereafter, OVA was removed by washing, and cells were cultured in just the culture medium for three hours. DC2.4 cells activated with OVA by the above procedure were plated in a 96-well plate, OT-I mouse-derived CD8^+ T cells were added to this, and after culturing overnight, the amount of IL-2 released into the supernatant was measured by ELISA.
Under condition (ii), OVA and HSP90 were added simultaneously to DC2.4 cells, cells were cultured for three hours, then washed, and cultured in just the culture medium for three hours. Thereafter, the procedures to investigate the activation of OT-I mouse-derived CD8^+ T cells was carried out similarly to in (i) above.
Under condition (iii), OVA was first added to DC2.4 cells, cells were cultured for three hours, and then washed to remove OVA. Next, HSP90 was added, and the cells were cultured for another three hours. The procedures that follow were carried out similarly to that of (i) and (ii). Meanwhile, timings were set such that the incubation times during the stage in which cells are in contact with OVA and the stage at which OVA has been taken up were the same under conditions (i) to (iii).

[2] = test system: DC2.4 cells; assay: Degradation of cell-bound bOVA in DC2.4 cells (pulse-chase, SA beads, Western blot); conditions: for effect on decrease (degradation) of cell-bound bOVA: DC2.4 cells incubated with bOVA one hour, chased up to four hours, inhibitor present; for effect on degradation of bOVA taken up into cells: FIG. 1b; for effect on degradation of accumulated bOVA (ERAD inhibition): DC2.4 cells pulsed with bOVA in the presence of MG-132, chased four hours; for effect on bOVA degradation: FIG. 4b
Procedure: Next, DC2.4 cells were incubated with bOVA for one hour, and this was then chased for up to four hours. Cell-bound bOVA was recovered from total cell lysates by streptavidin-agarose and separated by SDS-PAGE.
Depletion of Ca^2+ in the ER is known to inhibit ERAD. Thapsigargin (Tg) is known to decrease the Ca^2+ concentration in the ER lumen by binding to the ER membrane and functioning as an ionophore and to inhibit ERAD. Thus, in the presence of Tg, bOVA degradation by ERAD is predicted to be suppressed. DC2.4 cells were pulsed with bOVA in the presence of MG-132, then washed with PBS or with PBS containing 1 mM EGTA, and then chased for four hours.
Furthermore, the effect of tunicamycin treatment on bOVA accumulation was examined. When cells are treated with tunicamycin (Tm), N-type glycosylation is inhibited, and abnormally folded proteins accumulate in the ER lumen.

[3] = test system: DC2.4 cells; assay: MHC class II antigen presentation by DC2.4 cells to OT-II CD4+ T cells (IL-2 production); conditions: DC2.4 cells pretreated in the presence of NH4Cl, cultured with OVA
Procedure: DC2.4 cells pretreated in the presence of NH4Cl were cultured with OVA, and then the stimulation of OT-I CD8^+ T cells in response to MHC class I antigen presentation (circles) and stimulation of OT-II CD4^+ T cells in response to MHC class II antigen presentation (triangles) was determined by measuring IL-2 production levels. IL-2 production level in the presence of NH4Cl was expressed as a ratio relative to the control (IL-2 production was 700 pg/mL relative to OT-I, and 20 pg mL relative to OT-II).

CC(C)C[C@@H](C=O)NC(=O)[C@H](CC(C)C)NC(=O)[C@H](CC(C)C)NC(=O)OCc1ccccc1 [MG-132, reference compound] (Cbz-Leu-Leu-Leu-aldehyde)
effect on stimulation of OT-I CD8+ T cells by OVA (IL-2 production) ([1]; MG-132 25 μM): suppressed stimulation by OVA | effect on stimulation of OT-I CD8+ T cells by SIINFEKL peptide (IL-2 production) ([1]; MG-132 25 μM): did not suppress stimulation by the SIINFEKL peptide | effect on decrease (degradation) of cell-bound bOVA [2]: this decrease was blocked | effect on degradation of bOVA taken up into cells ([2]; MG-132 10 μM): reduced the degradation of bOVA taken up into cells

Cl.N [NH4Cl, Ammonium chloride, reference compound]
effect on presentation of OVA antigen with MHC class II to OT-II CD4+ cells [3]: inhibited the presentation with MHC class II | effect on presentation of OVA antigen with MHC class I to OT-I CD8+ T cells ([1]; DC2.4 cells pretreated with inhibitor, cultured with OVA): did not reduce the presentation of the OVA antigen with MHC class I | effect on decrease (degradation) of cell-bound bOVA [2]: did not significantly affect bOVA degradation | effect on degradation of bOVA taken up into cells ([2]; NH4Cl 50 mM): did not reduce this degradation

CC(=O)N[C@@H](CSC(=O)[C@]1([C@@H](O)C(C)C)NC(=O)[C@H](C)[C@@H]1O)C(=O)O [lactacystin, reference compound]
effect on stimulation of OT-I CD8+ T cells by OVA (IL-2 production) ([1]; Lactastatin 10 μM): suppressed stimulation by OVA | effect on stimulation of OT-I CD8+ T cells by SIINFEKL peptide (IL-2 production) ([1]; Lactastatin 10 μM): did not suppress stimulation by the SIINFEKL peptide | effect on decrease (degradation) of cell-bound bOVA [2]: this decrease was blocked | effect on degradation of bOVA taken up into cells ([2]; lactastatin 2 μM): reduced the degradation of bOVA taken up into cells

C/C=C(/C)C(=O)O[C@H]1C(C)=C2[C@H]([C@@H]1OC(=O)CCCCCCC)[C@@](C)(OC(C)=O)C[C@H](OC(=O)CCC)[C@@]1(O)[C@H]2OC(=O)[C@@]1(C)O [thapsigargin, Thapsigargin]
effect on degradation of accumulated bOVA (ERAD inhibition) [2]: inhibited the degradation of accumulated bOVA | effect on bOVA degradation ([2]; thapsigargin 300 nM): bOVA degradation is inhibited

tunicamycin
effect on degradation of accumulated bOVA (ERAD inhibition) [2]: bOVA degradation was inhibited | effect on bOVA degradation ([2]; tunicamycin 2 g): bOVA degradation is inhibited

From patent US20080194020A1, “Methods For Producing Dendritic Cells That Have Acquired Ctl-Inducing Ability” (Medical and Biological Laboratories Co., Ltd., priority 2004, published 2008)
